Source: PMC6401105, “Dual role of the Anopheles coluzzii Venus Kinase Receptor in both larval growth and immunity” (Scientific Reports, 2019)

Assays:
[1] = biological target: T1, Anopheles VKR (AgVKR; VKR^WT) (Anopheles gambiae, UniProt C5H7S1); test: GVBD of Xenopus oocytes expressing VKR; anti-phosphotyrosine Western blot; type: cell-based; conditions: agonist; VFT domain; ND96 medium pH 7.4, 19 °C, 18 h; not an EC50
T1 sequence (C5H7S1 26-1465): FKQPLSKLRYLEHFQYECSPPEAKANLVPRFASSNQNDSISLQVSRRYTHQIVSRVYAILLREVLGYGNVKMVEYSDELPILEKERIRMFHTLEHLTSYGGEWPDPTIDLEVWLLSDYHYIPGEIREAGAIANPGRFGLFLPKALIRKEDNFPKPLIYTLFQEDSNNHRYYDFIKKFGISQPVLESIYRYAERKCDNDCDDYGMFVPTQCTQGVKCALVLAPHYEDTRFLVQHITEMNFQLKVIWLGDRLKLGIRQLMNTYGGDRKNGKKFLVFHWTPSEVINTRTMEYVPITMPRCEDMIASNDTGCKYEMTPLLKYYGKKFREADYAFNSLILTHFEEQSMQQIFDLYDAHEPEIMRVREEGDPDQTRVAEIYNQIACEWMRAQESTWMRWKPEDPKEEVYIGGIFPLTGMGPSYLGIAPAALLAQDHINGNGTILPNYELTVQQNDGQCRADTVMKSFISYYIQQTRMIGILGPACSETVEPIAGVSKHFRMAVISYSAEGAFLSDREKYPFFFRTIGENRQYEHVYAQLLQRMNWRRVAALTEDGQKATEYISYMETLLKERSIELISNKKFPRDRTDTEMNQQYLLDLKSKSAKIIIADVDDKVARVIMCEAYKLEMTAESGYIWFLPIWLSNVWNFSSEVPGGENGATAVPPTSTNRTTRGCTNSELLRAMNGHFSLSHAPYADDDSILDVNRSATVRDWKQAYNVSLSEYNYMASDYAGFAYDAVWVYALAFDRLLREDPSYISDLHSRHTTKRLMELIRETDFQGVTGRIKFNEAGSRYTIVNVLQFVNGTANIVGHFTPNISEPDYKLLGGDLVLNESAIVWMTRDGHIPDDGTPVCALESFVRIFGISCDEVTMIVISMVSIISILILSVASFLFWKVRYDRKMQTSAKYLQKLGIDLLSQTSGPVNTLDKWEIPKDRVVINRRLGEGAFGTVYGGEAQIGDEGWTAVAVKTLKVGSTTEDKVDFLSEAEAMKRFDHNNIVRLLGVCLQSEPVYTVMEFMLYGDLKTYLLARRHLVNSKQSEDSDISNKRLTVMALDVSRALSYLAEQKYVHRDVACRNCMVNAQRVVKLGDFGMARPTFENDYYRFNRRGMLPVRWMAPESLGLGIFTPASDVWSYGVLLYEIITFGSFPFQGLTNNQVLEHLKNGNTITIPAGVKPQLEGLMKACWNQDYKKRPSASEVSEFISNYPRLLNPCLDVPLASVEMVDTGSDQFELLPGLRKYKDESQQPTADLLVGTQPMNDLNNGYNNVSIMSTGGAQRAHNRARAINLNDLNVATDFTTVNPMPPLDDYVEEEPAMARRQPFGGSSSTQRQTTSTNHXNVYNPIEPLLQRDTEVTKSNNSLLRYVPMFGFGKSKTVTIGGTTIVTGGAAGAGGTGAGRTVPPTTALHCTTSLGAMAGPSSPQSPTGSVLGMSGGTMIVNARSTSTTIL

[2] = biological target: T1, Anopheles VKR (AgVKR; VKR^WT); test: GVBD of Xenopus oocytes expressing VKR; type: cell-based; conditions: agonist; VFT domain; ND96 medium pH 7.4, 19 °C, 18 h; not an EC50

SMILES	minimal concentration to induce GVBD [1]	minimal concentration to induce GVBD [2]
N=C(N)NCCC[C@H](N)C(=O)O [L-Arg]	1 µM	
N[C@@H](CS)C(=O)O [L-Cys]		1 mM
